# Source: patent US6329405A, “Cyclobutene derivatives, their preparation and their therapeutic uses” (Sankyo Company, Limited, priority 1999, dated 2001)
# Legend:
# [1] = test system: ileal bile acid transporter; assay: Measurement of Bile Acid Transporter Inhibitory Activity in vivo ([3H]-taurocholic acid radioactivity in gall bladder bile); set-up: species or system Syrian golden hamsters; settings: male hamsters; oral gavage 100 mg/10 ml/kg; [3H]-taurocholic acid 1.5 hours after; gall bladder bile at 24 hours
# Protocol: Measurement of Bile Acid Transporter Inhibitory Activity in vivo
# Male Syrian golden hamsters were used. The hamsters were reared in cages and fed food and water ad libitum. Test compound was orally administered by gavage (100 mg/10 ml/kg) as a suspension in 0.5% w/v carboxymethyl cellulose aqueous solution. Each hamster was given orally 1 μCi of [^3 H]-taurocholic acid ([…]) in physiological saline 1.5 hours after administration of the test compound. Twenty four hours after the oral administration of [^3 H]-taurocholic acid, each of the hamsters was sacrificed and the gall bladder bile was collected. The total radioactivity in the bladder bile was determined and compared to a vehicle-treated group.
# Percentage inhibition (%) was determined by the following formula:
# Inhibition percentage=100-(radioactivity in the treated
# group)/(radioactivity in the control group)×100
# [2] = molecular target: T1, human ileal bile acid transporter (Homo sapiens, UniProt Q12908); assay: Measurement of Bile Acid Transporter Inhibitory Activity in vitro (uptake of [3H]-taurocholic acid into hIBAT-expressing Caco-2 cells); format: cell-based; settings: 0.1 μCi [3H]-taurocholic acid, 37° C., 1 hour
# T1 construct: expressed in transfected cells
# T1 sequence (Q12908 1-348): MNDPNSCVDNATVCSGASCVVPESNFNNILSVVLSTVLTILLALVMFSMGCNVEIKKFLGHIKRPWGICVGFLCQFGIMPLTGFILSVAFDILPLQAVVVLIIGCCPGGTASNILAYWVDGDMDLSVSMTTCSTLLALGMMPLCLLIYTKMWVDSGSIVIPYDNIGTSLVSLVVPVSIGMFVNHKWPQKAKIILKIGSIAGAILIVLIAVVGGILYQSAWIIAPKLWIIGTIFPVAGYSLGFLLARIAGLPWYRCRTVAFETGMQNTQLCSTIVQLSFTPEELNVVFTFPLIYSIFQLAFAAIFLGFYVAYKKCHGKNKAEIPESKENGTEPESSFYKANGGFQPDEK
# From the text: Measurement of Bile Acid Transporter Inhibitory Activity in vitro
# 1) Insertion of human ileal bile acid transporter cDNA into a mammalian expression vector
# Human ileal bile acid transporter cDNA (GenBank accession number U10417, hereinafter abbreviated as "hIBAT") was amplified by PCR using a human kidney cDNA library ("Marathon-Ready"™, Clontech Laboratories) as a template. The sense oligonucleotide primer used was 5'-[…]-3' (corresponding to residues 512-533 of hIBAT cDNA: Sequence ID No. 1) while the antisense oligonucleotide primer used was 5'-[…]-3' (corresponding to residues 1649-1670 of hIBAT cDNA: Sequence ID NO. 2). […]
# After incubation, the cells were washed 5 times with ice cooled PBS (phosphate buffered saline) containing 0.2% bovine serum albumin and 1 mM non-radioactive taurocholic acid. […] Radioactivity was measured using a "Top Count" (Packard) liquid scintillation counter.
# By measuring the radioactivity of the control (no text compound) and comparing this with the radioactivity obtained from the cells exposed to test compound at various, predetermined concentrations, it was possible to determine a percentage inhibition (%) and to obtain an IC50 for the test compound against the ileal bile acid transporter activity.
SMILES,Percentage inhibition [1],IC50 [2]
"COc1ccc(C(N[C@H](C)c2cc(F)cc(F)c2)c2cccc(Nc3c(O)c(=O)c3=O)c2)cc1 (single isomer, unassigned) [64(e)]",80.0%,–
"C[C@H](NC(c1ccccc1)c1cccc(Nc2c(N)c(=O)c2=O)c1)c1ccccc1 (single isomer, unassigned) [2 (isomer B)]",61.87%,13.8 µM
